In paper PMC8070144, “The YfkO Nitroreductase from Bacillus Licheniformis on Gold-Coated Superparamagnetic Nanoparticles: Towards a Novel Directed Enzyme Prodrug Therapy Approach” (Pharmaceutics, 2021):

Assays:
[1] = target: T1, NfnB-cys (Escherichia coli, UniProt P38489); experiment: UV-Vis spectra with time, NADH oxidation at […] nm; type: biochemical; conditions: free enzyme; CB1954 100 µM; 50 mM phosphate pH 7.2; methods print NADPH, results print NADH
T1 construct: gene nfsB; recombinant, pET28a(+) in E. coli Rosetta BL21(DE3) (printed B21 DE3); N-terminal Cys tag and His tag kept; Ni IMAC, FMN-saturated, PD10 desalted
T1 sequence (P38489 whole entry): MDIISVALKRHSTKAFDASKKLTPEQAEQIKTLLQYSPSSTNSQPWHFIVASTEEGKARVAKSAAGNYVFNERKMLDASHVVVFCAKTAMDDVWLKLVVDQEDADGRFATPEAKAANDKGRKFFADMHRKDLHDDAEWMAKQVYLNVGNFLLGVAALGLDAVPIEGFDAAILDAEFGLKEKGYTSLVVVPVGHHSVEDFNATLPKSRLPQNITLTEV

[2] = test system: T2, YfkO-cys; experiment: absorbance at […] nm, hydroxylamine product formation, plate reader; type: biochemical, Bacillus licheniformis; conditions: free enzyme; NADH 400 µM; 50 mM phosphate pH 7.2; 37 °C; CB1954 0.1-10 mM
T2 construct: recombinant, pET28a(+) in E. coli Rosetta BL21(DE3) (printed B21 DE3); N-terminal Cys tag and His tag kept; Ni IMAC, FMN-saturated, PD10 desalted

[3] = target: T1, NfnB-cys; experiment: UV-Vis spectra with time, product at […] nm; type: biochemical; conditions: free enzyme; CB1954 100 µM; 50 mM phosphate pH 7.2; cofactor NADH in results (NADPH 300 µM in methods)

SMILES | UV-Vis spectra with time, NADH oxidation at 340 nm [1] | Km [2] [µM] | UV-Vis spectra with time, product at 420 nm [3]
NC(=O)C1=CN([C@@H]2O[C@H](COP(=O)(O)OP(=O)(O)OC[C@H]3O[C@@H](n4cnc5c(N)ncnc54)[C@H](O)[C@@H]3O)[C@@H](O)[C@H]2O)C=CC1 [NADH] | scans obtained for NfnB-cys, free and immobilised, were almost identical to these | – | –
NC(=O)c1cc(N2CC2)c([N+](=O)[O-])cc1[N+](=O)[O-] [compound 1, 5-(aziridin-1-yl)-2,4-dinitrobenzamide] | – | 830 ± 250 | scans obtained for NfnB-cys, free and immobilised, were almost identical to these
